# Source: PMC11111408, “Concurrent inhibition of oncogenic and wild-type RAS-GTP for cancer therapy” (Nature, 2024)
# Values joined by “and” are separate entries in the source; they are usually repeats but may differ in a detail not shown here. Identical values can stand only once.
# What was measured:
# KRAS^G13D = KRAS^G13D (Homo sapiens, UniProt P01116+P62937, G13D); test: Cellular RAS–CYPA binding (tri-complex formation), nano-BRET in U2OS cells; type: cell-based; details: (95% CI)
# Excerpt: KRAS4B, or other small GTPases, containing the indicated mutations were cloned in pNLF-N or pHTN plasmids for expression with an N-terminal nanoluciferase or HaloTag fusion, respectively. […] The following day, the cells were collected by Trypsin and reseeded in a white tissue culture-treated 96-well plate in OptiMem phenol red-free medium (Gibco) containing 4% FBS and a 1:1,000 dilution of NanoBRET 618 HaloTag ligand (Promega). For endpoint concentration response curves, vivazine nanoluciferase substrate was added to 1× concentration in OptiMem phenol red-free medium with 4% FBS. Varying concentrations of inhibitor were added and incubated for 1 or 4 h before the nano-BRET signal was measured on a Perkin Elmer Envision plate reader. For kinetic assays, endurazine nanoluciferase substrate was used in place of vivazine, and the plate was placed in a Cytation5 multi-mode reader pre-equilibrated to 37 °C and 5% CO2.
# A375 cells = test: Cellular ERK phosphorylation (pERK); type: cell-based, human
# KRAS–RALGDS [1] = target: T1, KRAS–RALGDS (Homo sapiens, UniProt P01116, G12C); test: Cellular nano-BRET, full length RALGDS binding to KRAS G12C, G12D, G12V; type: cell-based; details: KRAS G12C, in the presence of CYPA, single replicates
# T1 construct: expressed in transfected cells; host or cells: U2OS
# KRAS–RALGDS [2] = target: T2, KRAS–RALGDS (Homo sapiens, UniProt P01116, G12D); test: as above; type: cell-based; details: KRAS G12D, in the presence of CYPA, single replicates
# T2 construct: expressed in transfected cells; host or cells: U2OS
# KRAS–RALGDS [3] = target: T3, KRAS–RALGDS (Homo sapiens, UniProt P01116, G12V); test: as above; type: cell-based; details: KRAS G12V, in the presence of CYPA, single replicates
# T3 construct: expressed in transfected cells; host or cells: U2OS
# RAS-less MEFs = test: Western blots of isogenic RAS-less MEF cells expressing KRAS variants or BRAF(V600E); type: cell-based, mouse; details: 24 h, western blot
# [4] = system: DUSP6 mRNA in NCI-H441 xenograft tumours; test: In vivo pharmacodynamic analysis by DUSP6 qPCR in NCI-H441 CDX tumours; parameters: species or system mouse; details: for % inhibition of DUSP6 vs control: single dose, tumor, individual animals
# Method: RNA extraction and analysis of DUSP6 levels by in tumour tissue were performed as previously described.
# [5] = system: Pa16C cells expressing MEK1 mutants; test: Proliferation (Calcein AM) of Pa16C cells expressing MEK1 mutants; type: cell-based, human; details: MEK1E102-I103del
structure (smiles),measurement,setting,value
CCn1c(-c2cc(N3CCN(C4CC4)CC3)cnc2[C@H](C)OC)c2c3cc(ccc31)-c1csc(n1)C[C@H](NC(=O)[C@H]1[C@@H]3COC[C@@H]31)C(=O)N1CCC[C@H](N1)C(=O)OCC(C)(C)C2 [RMC-7977],EC50,KRAS^G13D,0.00499 µM
same,inhibition of downstream signalling (pERK),"A375 cells; A375, BRAF^V600E, RAS-independent",No inhibition
same,EC50,"A375 cells; Homo sapiens, A-375, A375 (BRAF^V600E)",> 10 µM
same,Cellular nano-BRET of RALGDS (full-length) binding to KRAS,KRAS–RALGDS [1]; RMC-7977 4.115 nM,18.1963 and 16.034 and 17.4595 and 15.2439 and 16.9748 and 14.2583
same,Cellular nano-BRET of RALGDS (full-length) binding to KRAS,KRAS–RALGDS [1]; RMC-7977 12.346 nM,13.0313 and 11.9807 and 11.9885 and 11.6119 and 11.6125 and 11.8549
same,Cellular nano-BRET of RALGDS (full-length) binding to KRAS,KRAS–RALGDS [1]; RMC-7977 37.037 nM,11.0793 and 10.028 and 11.2271 and 10.7778 and 11.2352 and 10.211
same,Cellular nano-BRET of RALGDS (full-length) binding to KRAS,KRAS–RALGDS [1]; RMC-7977 111.111 nM,10.2935 and 10.375 and 9.345 and 10.0632 and 10.0122 and 10.2781
same,Cellular nano-BRET of RALGDS (full-length) binding to KRAS,KRAS–RALGDS [1]; RMC-7977 333.333 nM,10.1394 and 10.5924 and 9.785 and 10.0763 and 9.658 and 9.979
same,Cellular nano-BRET of RALGDS (full-length) binding to KRAS,KRAS–RALGDS [1]; RMC-7977 1000.000 nM,10.8628 and 9.92 and 10.139 and 10.0712 and 10.3509 and 9.953
same,Cellular nano-BRET of RALGDS (full-length) binding to KRAS,KRAS–RALGDS [2]; RMC-7977 12.346 nM,21.965 and 22.2278 and 22.7225 and 21.1836 and 19.9465 and 19.3916
same,Cellular nano-BRET of RALGDS (full-length) binding to KRAS,KRAS–RALGDS [2]; RMC-7977 37.037 nM,15.9727 and 15.3384 and 16.4816 and 15.5961 and 16.3731 and 14.4955
same,Cellular nano-BRET of RALGDS (full-length) binding to KRAS,KRAS–RALGDS [2]; RMC-7977 111.111 nM,13.7998 and 12.0846 and 13.3529 and 13.1019 and 13.0482 and 11.2251
same,Cellular nano-BRET of RALGDS (full-length) binding to KRAS,KRAS–RALGDS [2]; RMC-7977 333.333 nM,11.2999 and 11.1999 and 10.8448 and 10.0467 and 10.686 and 10.4797
same,Cellular nano-BRET of RALGDS (full-length) binding to KRAS,KRAS–RALGDS [2]; RMC-7977 1000.000 nM,10.2193 and 10.47 and 10.4459 and 10.0036 and 10.1066 and 10.1313
same,Cellular nano-BRET of RALGDS (full-length) binding to KRAS,KRAS–RALGDS [3]; RMC-7977 4.115 nM,30.1314 and 27.6913 and 29.7303 and 27.1744
same,Cellular nano-BRET of RALGDS (full-length) binding to KRAS,KRAS–RALGDS [3]; RMC-7977 12.346 nM,22.418 and 20.7842 and 21.8208 and 20.4059 and 22.2654 and 20.6652
same,Cellular nano-BRET of RALGDS (full-length) binding to KRAS,KRAS–RALGDS [3]; RMC-7977 37.037 nM,15.6693 and 15.6351 and 15.326 and 16.1305 and 15.8324 and 15.892
same,Cellular nano-BRET of RALGDS (full-length) binding to KRAS,KRAS–RALGDS [3]; RMC-7977 111.111 nM,12.652 and 12.1384 and 12.5044 and 12.7423 and 12.6511 and 12.657
same,Cellular nano-BRET of RALGDS (full-length) binding to KRAS,KRAS–RALGDS [3]; RMC-7977 333.333 nM,11.4911 and 11.1105 and 10.9221 and 11.2754 and 11.3448 and 11.4972
same,Cellular nano-BRET of RALGDS (full-length) binding to KRAS,KRAS–RALGDS [3]; RMC-7977 1000.000 nM,11.0787 and 10.8666 and 11.0137 and 11.1587 and 10.8841 and 10.9076
same,pERK suppression in RAS-less MEFs,RAS-less MEFs,"suppressed pERK in all KRAS-expressing cells, but not in BRAF(V600E)-expressing RAS-less MEFs"
same,EC50,"[4]; Mus musculus, NCI-H441, po, read-out: EC50, total tumour concentration versus DUSP6 inhibition",0.13 µM
same,EC90,"[4]; Mus musculus, NCI-H441 CDX, single oral administration, read-out: EC90, tumour concentration versus DUSP6 inhibition",1.45 µM
same,RMC-7977 10 mg/kg po dusp6,"[4]; NCI-H441 CDX tumour DUSP6 mRNA, single oral 10 mg/kg, 1 h, individual replicates, 10 mg/kg",34.819 and 101.252 and 98.4831
same,RMC-7977 25 mg/kg po dusp6,"[4]; NCI-H441 CDX tumour DUSP6 mRNA, single oral 25 mg/kg, 1 h, individual replicates, 25 mg/kg",26.2056 and 15.6903 and 16.7583
same,suppression of tumour DUSP6 levels,"[4]; NCI-H441 CDX, single oral dose of 10 mg kg^−1, at 8 h",91%
same,% inhibition of DUSP6 vs control,"[4]; 8h, 1 mg/kg",63.5% and 36.8% and 52.6%
same,% inhibition of DUSP6 vs control,"[4]; 8h, 5 mg/kg",53.7% and 91.7% and 1.5%
same,% inhibition of DUSP6 vs control,"[4]; 8h, 10 mg/kg",95.7% and 96.4% and 96.3% and 93.6937% and 85.7607% and 93.075%
same,% inhibition of DUSP6 vs control,"[4]; 8h, 25 mg/kg",95.995% and 81.4698% and 87.9011%
same,% inhibition of DUSP6 vs control,"[4]; 24h, 1 mg/kg",0% and 16.6%
same,% inhibition of DUSP6 vs control,"[4]; 24h, 5 mg/kg",6.8% and 29.4% and 61.8%
same,% inhibition of DUSP6 vs control,"[4]; 24h, 10 mg/kg",89.7% and 90.2% and 86.9% and 86.5288% and 67.1731% and 84.3639%
same,% inhibition of DUSP6 vs control,"[4]; 24h, 25 mg/kg",94.1768% and 94.6786% and 96.3905%
same,% inhibition of DUSP6 vs control,"[4]; 48h, 1 mg/kg",0% and 32.5%
same,% inhibition of DUSP6 vs control,"[4]; 48h, 5 mg/kg",3.9% and 33.4% and 22.2%
same,% inhibition of DUSP6 vs control,"[4]; 48h, 10 mg/kg",72.3% and 74.6% and 69.6% and 56.232% and 64.817% and 89.3572%
same,% inhibition of DUSP6 vs control,"[4]; 48h, 25 mg/kg",81.914% and 86.388% and 94.0545%
same,% inhibition of DUSP6 vs control,"[4]; 72h, 5 mg/kg",0% and 11.9%
same,% inhibition of DUSP6 vs control,"[4]; 72h, 10 mg/kg",0.2% and 45.2% and 48.1% and 87.4744% and 67.1731%
same,% inhibition of DUSP6 vs control,"[4]; 72h, 25 mg/kg",87.2112% and 72.4915% and 81.7249%
same,Proliferation of Pa16C cells expressing MEK1 mutant constructs,[5]; inhibitor 0.010 nM,100
same,Proliferation of Pa16C cells expressing MEK1 mutant constructs,[5]; inhibitor 0.046 nM,104.2 and 107.7 and 121 and 88.4
same,Proliferation of Pa16C cells expressing MEK1 mutant constructs,[5]; inhibitor 11.111 nM,80.9 and 75.7 and 68.8 and 87.1
same,Proliferation of Pa16C cells expressing MEK1 mutant constructs,[5]; inhibitor 33.333 nM,72.5 and 68.1 and 61 and 93
same,Proliferation of Pa16C cells expressing MEK1 mutant constructs,[5]; inhibitor 100.000 nM,65.9 and 65.1 and 49.1 and 77.1
same,Proliferation of Pa16C cells expressing MEK1 mutant constructs,[5]; inhibitor 300.000 nM,58.5 and 56.3 and 42.3 and 60.5
